Test results from US9353072B2, “Antimicrobial substituted thiazoles and methods of use” (Purdue Research Foundation, priority 2012, dated 2016).
≈ marks a conversion by molar mass, not a printed value. Like-named read-outs stand apart in the source and are kept apart here.

Assays:
MRSA ATCC 43300 = test: MIC/MBC broth microdilution, MRSA ATCC 43300; assay type: cell-based, Staphylococcus aureus; conditions: Staphylococcus aureus
Experimental: (§1) Determination of minimum inhibitory concentration (MIC). The MICs of the lead thiazole compound (compound 1a) and nine derivatives tested against all 18 MRSA strains were determined, in triplicate samples, using the broth microdilution method in accordance with the recommendations contained in the CLSI guidelines.

[1] = system: MRSA ATCC 700699 (NRS1, VISA); test: MIC/MBC broth microdilution, NRS1 (ATCC 700699); assay type: cell-based; conditions: Staphylococcus aureus
Experimental: as §1

VISA HIP07256 (NRS19) = test: MIC/MBC broth microdilution, NRS19 (VISA HIP07256); assay type: cell-based; conditions: Staphylococcus aureus, Table 8, NRS19 (VISA); for MBC: read-out: MBC; for MIC: read-out: MIC
Experimental: as §1

VISA LIM 3 (NRS37) = test: MIC/MBC broth microdilution, NRS37 (VISA LIM 3); assay type: cell-based; conditions: Staphylococcus aureus, Table 8, NRS37 (VISA); for MBC: read-out: MBC; for MIC: read-out: MIC
Experimental: as §1

NRS107 = test: MIC/MBC broth microdilution, NRS107; assay type: cell-based; conditions: Staphylococcus aureus; for MBC: Table 8, read-out: MBC; for MIC: Table 8, read-out: MIC
Experimental: as §1

NRS119 = test: MIC/MBC broth microdilution, NRS119; assay type: cell-based; conditions: Staphylococcus aureus
Experimental: as §1

MRSA USA400 (NRS123) = test: MIC/MBC broth microdilution, NRS123 (USA400); assay type: cell-based; conditions: Staphylococcus aureus, Table 8, NRS123; for MBC: read-out: MBC; for MIC: read-out: MIC
Experimental: as §1

NRS194 = test: MIC/MBC broth microdilution, NRS194; assay type: cell-based; conditions: Staphylococcus aureus; for MBC: Table 8, read-out: MBC; for MIC: Table 8, read-out: MIC
Experimental: as §1

MRSA NRS384 (USA300) = test: MIC/MBC broth microdilution, NRS384 (USA300); assay type: cell-based; conditions: Staphylococcus aureus; for MBC: read-out: MBC
Experimental: as §1

MRSA USA500 (NRS385) = test: MIC/MBC broth microdilution, NRS385 (USA500); assay type: cell-based; conditions: Staphylococcus aureus, Table 8, NRS385; for MBC: read-out: MBC; for MIC: read-out: MIC
Experimental: as §1

VRSA (VRS10) = test: MIC/MBC broth microdilution, VRSA (VRS10); assay type: cell-based, Staphylococcus aureus; conditions: Staphylococcus aureus; for MBC: read-out: Minimum Bactericidal Concentration; for MIC: read-out: Minimum Inhibitory Concentration
Experimental: as §1

[2] = Table 6, MRSA ATCC 43300, 128 μM down to 1.0 μM, 20 hours, read-out: MIC
[3] = Table 6, MRSA ATCC 43300, plating on TSA, 20 hour incubation, read-out: MBC
[4] = Table 7, MRSA (ATCC 43300), read-out: Minimum Bactericidal Concentration
[5] = Table 7, MRSA (ATCC 43300), read-out: Minimum Inhibitory Concentration
[6] = Table 8, ATCC 43300, read-out: MBC
[7] = Table 8, ATCC 43300, read-out: MIC
[8] = Table 7, VISA (NRS1), read-out: Minimum Bactericidal Concentration
[9] = Table 7, VISA (NRS1), read-out: Minimum Inhibitory Concentration
[10] = Table 8, NRS1 (VISA), read-out: MBC
[11] = Table 8, NRS1 (VISA), triplicates, 20 hours, read-out: MIC
[12] = NRS 119 / VISA, Table 7, VISA (NRS119), read-out: Minimum Bactericidal Concentration
[13] = NRS 119 / VISA, Table 7, VISA (NRS119), read-out: Minimum Inhibitory Concentration
[14] = read-out: Minimum Bactericidal Concentration
[15] = read-out: Minimum Inhibitory Concentration

| MIC (MRSA ATCC 43300; [7]) [µM] | MIC [1, 11] [µM] | MIC (VISA HIP07256 (NRS19)) [µM] | MIC (VISA LIM 3 (NRS37)) [µM] | MIC (NRS107) [µM] | MIC (NRS119; Table 8, NRS119, read-out: MIC) [µM] | MIC (MRSA USA400 (NRS123)) [µM] | MIC (NRS194) [µM] | MIC (MRSA NRS384 (USA300); Table 8, NRS384, read-out: MIC) [µM] | MIC (MRSA USA500 (NRS385)) [µM] | SMILES | MBC (MRSA ATCC 43300; [6]) [µM] | MBC [1, 10] [µM] | MBC (VISA HIP07256 (NRS19)) [µM] | MBC (VISA LIM 3 (NRS37)) [µM] | MBC (NRS107) [µM] | MBC (NRS119; Table 8, NRS119, read-out: MBC) [µM] | MBC (MRSA USA400 (NRS123)) [µM] | MBC (NRS194) [µM] | MBC (MRSA NRS384 (USA300); Table 8, NRS384) [µM] | MBC (MRSA USA500 (NRS385)) [µM] | also measured |
| --- | --- | --- | --- | --- | --- | --- | --- | --- | --- | --- | --- | --- | --- | --- | --- | --- | --- | --- | --- | --- | --- |
| 16 (≈ 6.26 µg/mL) | 16 (≈ 6.26 µg/mL) | 32 (≈ 12.5 µg/mL) | 8 (≈ 3.13 µg/mL) | 16 (≈ 6.26 µg/mL) | 16 (≈ 6.26 µg/mL) | 16 (≈ 6.26 µg/mL) | 16 (≈ 6.26 µg/mL) | 16 (≈ 6.26 µg/mL) | 16 (≈ 6.26 µg/mL) | CC(=O)c1ccc(-c2ccc(-c3nc(C)c(/C(C)=N\NC(=N)N)s3)cc2)cc1 [Compound M11, (Z)-2-(1-(2-(4′-acetyl-[1,1′-biphenyl]-4-yl)-4-methylthiazol-5-yl)ethylidene)hydrazinecarboximidamide] | 16 (≈ 6.26 µg/mL) | 16 (≈ 6.26 µg/mL) | 32 (≈ 12.5 µg/mL) | 16 (≈ 6.26 µg/mL) | 32 (≈ 12.5 µg/mL) | 32 (≈ 12.5 µg/mL) | 16 (≈ 6.26 µg/mL) | 16 (≈ 6.26 µg/mL) | 16 (≈ 6.26 µg/mL) | 16 (≈ 6.26 µg/mL) | MIC (MRSA ATCC 43300; [2]): 4 µM (≈ 1.57 µg/mL); MBC (MRSA ATCC 43300; [3]): 8 µM (≈ 3.13 µg/mL); MBC (MRSA ATCC 43300; [4]): 8 µM (≈ 3.13 µg/mL); MIC (MRSA ATCC 43300; [5]): 8 µM (≈ 3.13 µg/mL); MBC [1, 8]: 32 µM (≈ 12.5 µg/mL); MIC [1, 9]: 8 µM (≈ 3.13 µg/mL); MBC (NRS119; [12]): 32 µM (≈ 12.5 µg/mL); MIC (NRS119; [13]): 16 µM (≈ 6.26 µg/mL); MBC (VRSA (VRS10); Table 7, VRSA (VRS10)): 16 µM (≈ 6.26 µg/mL); MIC (VRSA (VRS10); Table 7, VRSA (VRS10)): 16 µM (≈ 6.26 µg/mL) |
| 16 (≈ 5.88 µg/mL) | 8 (≈ 2.94 µg/mL) | 16 (≈ 5.88 µg/mL) | 8 (≈ 2.94 µg/mL) | 8 (≈ 2.94 µg/mL) | 16 (≈ 5.88 µg/mL) | 16 (≈ 5.88 µg/mL) | 16 (≈ 5.88 µg/mL) | 16 (≈ 5.88 µg/mL) | 16 (≈ 5.88 µg/mL) | C/C(=N/NC(=N)N)c1sc(-c2ccc(-c3ccc(F)cc3)cc2)nc1C [Compound M12, (Z)-2-(1-(2-(4′-fluoro-[1,1′-biphenyl]-4-yl)-4-methylthiazol-5-yl)ethylidene)hydrazinecarboximidamide] | 16 (≈ 5.88 µg/mL) | 8 (≈ 2.94 µg/mL) | 16 (≈ 5.88 µg/mL) | 16 (≈ 5.88 µg/mL) | 16 (≈ 5.88 µg/mL) | 32 (≈ 11.8 µg/mL) | 32 (≈ 11.8 µg/mL) | 32 (≈ 11.8 µg/mL) | 16 (≈ 5.88 µg/mL) | 16 (≈ 5.88 µg/mL) | MIC (MRSA ATCC 43300; [2]): 4 µM (≈ 1.47 µg/mL); MBC (MRSA ATCC 43300; [3]): > 16 µM; MBC (MRSA ATCC 43300; [4]): 16 µM (≈ 5.88 µg/mL); MIC (MRSA ATCC 43300; [5]): 4 µM (≈ 1.47 µg/mL); MBC [1, 8]: 8 µM (≈ 2.94 µg/mL); MIC [1, 9]: 4 µM (≈ 1.47 µg/mL); MBC (NRS119; [12]): 16 µM (≈ 5.88 µg/mL); MIC (NRS119; [13]): 16 µM (≈ 5.88 µg/mL); MBC (VRSA (VRS10); Table 7, VRSA (VRS10)): 64 µM (≈ 23.5 µg/mL); MIC (VRSA (VRS10); Table 7, VRSA (VRS10)): 8 µM (≈ 2.94 µg/mL) |
| – | – | – | – | – | – | – | – | – | – | CCCCCCCC#Cc1ccc(-c2nc(C)c(/C(C)=N/NC(=N)N)s2)cc1 [Compound M17, (E)-2-(1-(4-methyl-2-(4-(non-1-yn-1-yl)phenyl)thiazol-5-yl)ethylidene) hydrazinecarboximidamide] | – | – | – | – | – | – | – | – | – | – | MIC (MRSA ATCC 43300; 20 h): 32 µM (≈ 12.7 µg/mL); MBC (MRSA ATCC 43300; [14]): 64 µM (≈ 25.3 µg/mL); MIC (MRSA ATCC 43300; [15]): 32 µM (≈ 12.7 µg/mL); MBC [1, 14]: 32 µM (≈ 12.7 µg/mL); MIC [1, 15]: 16 µM (≈ 6.33 µg/mL); MBC (NRS119; NRS 119 / VISA, read-out: Minimum Bactericidal Concentration): 64 µM (≈ 25.3 µg/mL); MIC (NRS119; NRS 119 / VISA, read-out: Minimum Inhibitory Concentration): 32 µM (≈ 12.7 µg/mL); MBC (VRSA (VRS10); VRSA): 64 µM (≈ 25.3 µg/mL); MIC (VRSA (VRS10); VRSA): 32 µM (≈ 12.7 µg/mL) |
| 4 (≈ 1.41 µg/mL) | 2 (≈ 0.707 µg/mL) | 4 (≈ 1.41 µg/mL) | 4 (≈ 1.41 µg/mL) | 4 (≈ 1.41 µg/mL) | 4 (≈ 1.41 µg/mL) | 4 (≈ 1.41 µg/mL) | 4 (≈ 1.41 µg/mL) | 4 (≈ 1.41 µg/mL) | 4 (≈ 1.41 µg/mL) | CCCCC#Cc1ccc(-c2nc(C)c(/C(C)=N/NC(=N)N)s2)cc1 [Compound R1, (E)-2-(1-(2-(4-(hex-1-yn-1-yl)phenyl)-4-methylthiazol-5-yl)ethylidene)hydrazinecarboximidamide] | 4 (≈ 1.41 µg/mL) | 2 (≈ 0.707 µg/mL) | 4 (≈ 1.41 µg/mL) | 4 (≈ 1.41 µg/mL) | 4 (≈ 1.41 µg/mL) | 4 (≈ 1.41 µg/mL) | 4 (≈ 1.41 µg/mL) | 4 (≈ 1.41 µg/mL) | 4 (≈ 1.41 µg/mL) | 4 (≈ 1.41 µg/mL) | MIC (MRSA ATCC 43300; Table 4, MRSA ATCC 43300, 64 μM down to 0.5 μM, 37° C., 19 hours, read-out: Minimum Inhibitory Concentration): 4 µM (≈ 1.41 µg/mL) |
| > 128 | > 128 | > 128 | > 128 | > 128 | > 128 | > 128 | > 128 | > 128 | > 128 | CCCCc1ccc(-c2nc(C)c(/C(N)=N\O)s2)cc1 [Compound R7, (E)-2-(4-butylphenyl)-N′-hydroxy-4-methylthiazole-5-carboximidamide] | – | – | – | – | – | – | – | – | – | – | MIC (MRSA NRS384 (USA300); Table 5, MRSA NRS384 (USA300), 128 μM down to 1.0 μM, 37° C., 19 hours, read-out: Minimum Inhibitory Concentration): > 128 µM |
